Data: the supplement of paper PMC13380429
± gives the standard deviation of the averaged measurements.

What was measured:
Details in all cases: 72 h
Caco-2 [1] = test: cell viability relative to DMSO; higher = less toxic
Calu-3 [2] = test: as above
HepG2 [3] = test: as above
U2OS [4] = test: as above
Vero E6 [5] = test: as above
Caco-2 [6] = test: relative viability EC50 (midpoint between 100% and the lowest measured viability); higher = less toxic
Calu-3 [7] = test: as above
HepG2 [8] = test: as above
U2OS [9] = test: as above
Vero E6 [10] = test: as above
Caco-2 [11] = test: drug sensitivity score (DSS) for viability; higher = more toxic; extreme values may be limits of the assay
Calu-3 [12] = test: as above
HepG2 [13] = test: as above
U2OS [14] = test: as above
Vero E6 [15] = test: as above

Structure (SMILES)	cell viability (Caco-2 [1]; 1 nM) [%]	cell viability (Caco-2 [1]; 10 nM) [%]	cell viability (Caco-2 [1]; 100 nM) [%]	cell viability (Caco-2 [1]; 1000 nM) [%]	cell viability (Caco-2 [1]; 10000 nM) [%]	cell viability (Calu-3 [2]; 1 nM) [%]	cell viability (Calu-3 [2]; 10 nM) [%]	cell viability (Calu-3 [2]; 100 nM) [%]	cell viability (Calu-3 [2]; 1000 nM) [%]	cell viability (Calu-3 [2]; 10000 nM) [%]	cell viability (HepG2 [3]; 1 nM) [%]	cell viability (HepG2 [3]; 10 nM) [%]	cell viability (HepG2 [3]; 100 nM) [%]	cell viability (HepG2 [3]; 1000 nM) [%]	cell viability (HepG2 [3]; 10000 nM) [%]	cell viability (U2OS [4]; 1 nM) [%]	cell viability (U2OS [4]; 10 nM) [%]	cell viability (U2OS [4]; 100 nM) [%]	cell viability (U2OS [4]; 1000 nM) [%]	cell viability (U2OS [4]; 10000 nM) [%]	cell viability (Vero E6 [5]; 1 nM) [%]	cell viability (Vero E6 [5]; 10 nM) [%]	cell viability (Vero E6 [5]; 100 nM) [%]	cell viability (Vero E6 [5]; 1000 nM) [%]	cell viability (Vero E6 [5]; 10000 nM) [%]	relative viability EC50 (Caco-2 [6]) [µM]	relative viability EC50 (Calu-3 [7]) [µM]	relative viability EC50 (HepG2 [8]) [µM]	relative viability EC50 (U2OS [9]) [µM]	relative viability EC50 (Vero E6 [10]) [µM]	drug sensitivity score (Caco-2 [11])	drug sensitivity score (Calu-3 [12])	drug sensitivity score (HepG2 [13])	drug sensitivity score (U2OS [14])	drug sensitivity score (Vero E6 [15])
On1ncc(C2CCNCC2)c1-c1cccc(-c2ccccc2)c1 [PHP-501]	100	97.3	93	102	94.6	106	102	91.1	97.1	107	108	99.6	105	97.4	100	95.5	102	98.1	109	106	97.7	92.1	92	89.9	111	> 10	> 10	> 10	> 10	> 10	0	0	0	0	0
[N-]=[N+]=N[C@]1(CO)O[C@@H](n2ccc(N)nc2=O)[C@H](O)[C@@H]1O [R-1479]	98.2 ± 3.6	96.2 ± 4	90.7	98.6 ± 11	96.7 ± 9.1	91.35 ± 0.78	99.5 ± 4.4	102.8 ± 0.78	100 ± 2.3	93 ± 1.5	112 ± 7.2	94.25 ± 0.92	98.3 ± 2.8	94.7 ± 1.7	96.2 ± 3.6	98 ± 0.85	102 ± 2.8	102 ± 1.3	105 ± 2.5	100 ± 0.14	99 ± 3.8	96.4 ± 1.7	97.8 ± 1.7	94.5 ± 2.8	103 ± 6.7	> 10	> 10	> 10	> 10	> 10	0	0	0	0	0
COc1cc2c(cc1O)C(CCc1ccc(Cl)cc1)N(C)CC2 (stereo not given) [Ro-04-5595]	102	97.2	94.4	100	102	93	94.6	102	96.6	92.1	103	101	102	99	80.1	100	96.2	95.8	95.1	97.9	106	108	101	102	90.1	> 10	> 10	> 10	> 10	> 10	0	0	0.7	0	0
Cc1ncc(CN2CC=C(c3ccccc3)CC2)c(N)n1 [Ro-10-5824]	102	105	96.8	97.1	96.8	103	95.6	103	99.5	99.5	91.8	104	108	115	112	101	95.3	102	95.8	96.9	92.7	108	88.5	99.2	108	> 10	> 10	> 10	> 10	> 10	0	0	0	0	0
COc1ccc(-n2nc(C(F)(F)F)cc2-c2ccc(Cl)cc2)cc1 [SC-560]	101	99.1	95.7	92.2	86.6	104	104	109	95.3	108	106	104	104	91	87	102	99.9	104	98.8	100	98.2	105	92.6	100	44.3	> 10	> 10	> 10	> 10	3.18	0.2	0	0.6	0	3
CC1(C)O[C@@H]2C[C@H]3[C@@H]4CCC5=CC(=O)C=C[C@]5(C)[C@@]4(F)[C@@H](O)C[C@]3(C)[C@]2(C(=O)CO)O1 [TRIAMCINOLONE ACETONIDE]	94.2	96.2	96.8	89	93.1	98.4	95.4	87.6	103	106	103	91.3	94.6	101	93	99.4	95.7	94.6	90.7	95.2	102	99	95.3	97.4	100	> 10	> 10	> 10	> 10	> 10	0	0	0	0	0
C/C(=C\c1ccc(C(=O)O)cc1)c1ccc2c(c1)C(C)(C)CCC2(C)C [TTNPB]	98.1	95.1	95	95.3	91.9	95	95.6	84.3	81.7	77.2	94.2	106	108	100	108	99.3	99.2	94.3	93.2	92.5	94.7	102	98.3	97.9	102	> 10	> 10	> 10	> 10	> 10	0	3.9	0	0	0
